From publication PMC6651024, “LIR Motif-Containing Hyperdisulfide β-Ginkgotide is Cytoprotective, Adaptogenic, and Scaffold-Ready” (Molecules, 2019)
Entries after “also recorded” stand apart in the source; their conditions may differ. Where a SMILES comes first, the peptide text is derived from it.

Experiments:
H9c2 cells [1] = assay: Hypoxia-reoxygenation injury, MTT assay, H9c2; assay type: cell-based, rat; settings: H9c2, 1 µM peptide, 24 h hypoxia then 24 h normoxia, triplicates
Method: (§1) Cells were cultured with or without β-gB1 and its S-alkylated β-gB1, first under the hypoxic condition for 24 h and then at a normal oxygen environment for another 24 h. The cell viability under hypoxia-reoxygenation condition was assessed by the MTT assay.
(§2) Rat cardio-myoblast cells (H9c2) and […] neuron-like SH-SY5Y cells were purchased from ATCC and maintained in DMEM (Dulbecco’s modified eagle medium) medium supplemented with 10% fetal bovine serum (FBS), 10,000 U/mL of penicillin, and 10,000 µg/mL of streptomycin at 37 °C, 5% CO2.
(§3) Cells were seeded in a cell culture medium with/without β-gB1 and incubated at 37 °C, 5% CO2 overnight. The next day, the cells were locked inside a BD GasPak EZ anaerobe pouch system (BD Diagnostics, MD) and incubated at 37 °C for the next 48 h for the hypoxia condition. In addition, the cells were cultured under a normal oxygenated environment for the normoxic control. In hypoxia-reoxygenation experiments, the cells were incubated for 24 h in hypoxic conditions before being incubated for another 24 h under normoxia.
(§4) Phosphate-buffered saline (PBS) was used as a vehicle control.

SH-SY5Y cells [2] = assay: MTT-based cell proliferation assay under normoxia, SH-SY5Y; design: species or system human; settings: 10 µM peptide, 48 h, triplicates
Source text: (§5) In addition, β-gB1 is non-toxic to Vero and BHK (baby hamster kidney) cell lines based on an MTT assay. […] LDH is a cytoplasmic enzyme which is rapidly released into the cell culture medium upon plasma membrane damage and is widely used as a marker for cytotoxicity. Thus, an LDH-release assay measures the level of plasma membrane damage to a cell population.
as §2
(§6) Cells were cultured in DMEM with or without β-gB1/S-alkylated β-gB1 (β-gB1Alk) for 48 h under normoxia, hypoxia, and hypoxia-reoxygenation conditions. Phosphate-buffered saline (PBS) was used as a vehicle control. After 48 h, MTT (3-(4,5-dimethylthiazol-2-yl)-2,5-diphenyltetrazolium bromide) reagent was added with a final concentration of 0.5 mg/mL, and it was incubated at 37 °C for 2 h. The culture medium was then aspirated, and purple formazan crystals were dissolved in DMSO for colorimetric quantification at 570 nm using a microplate reader with a reference wavelength of 630 nm. […]

Beclin-1 (BECN1) = assay: Western blot of autophagy marker Beclin-1 in SH-SY5Y cells; assay type: cell-based, human; settings: western blot densitometry relative to GAPDH, normalized to vehicle control, mean, triplicates
Method: The LIR-containing proteins regulate autophagosome formation by interacting with the protein Atg8 (autophagy-related gene, Atg) family through their LIR sequences. […] The SH-SY5Y cells were cultured with or without β-gB1. The autophagy markers, Beclin-1 (BECN1), LC3B-I, and LC3B-II, were identified and quantified by western blot analysis. Beclin-1 plays an important role in regulating both autophagy and cell death, whereas LC3B is an important component of the autophagy pathway and the most widely used marker for autophagosomes. Two of the processed LC3B protein are LC3B-I and LC3B-II. LC3B-I is a truncated LC3B. In contrast, LC3B-II is a truncated and lipidated version of LC3B-I [28, 29]. Importantly, LC3B-II is centrally involved in the events of autophagosome membrane expansion and fusion. […]
A 25 µg equivalent quantity of each protein samples were resolved on a 10% and 15% SDS-PAGE gel accordingly and transferred onto a nitrocellulose membrane. […] Protein bands were quantitated densitometrically using ImageJ software (ImageJ15.0b, Wayen Rasband, NIH, Bethesda, Maryland, USA), expressed relative to GAPDH, and normalized to the vehicle control cells. […]

LC3B = assay: Western blot of autophagy marker LC3B (LC3B-I, LC3B-II) in SH-SY5Y cells; assay type: cell-based, human; settings: triplicates
Method: The LIR-containing proteins regulate autophagosome formation by interacting with the protein Atg8 (autophagy-related gene, Atg) family through their LIR sequences. […] The SH-SY5Y cells were cultured with or without β-gB1. The autophagy markers, Beclin-1 (BECN1), LC3B-I, and LC3B-II, were identified and quantified by western blot analysis. Beclin-1 plays an important role in regulating both autophagy and cell death, whereas LC3B is an important component of the autophagy pathway and the most widely used marker for autophagosomes. Two of the processed LC3B protein are LC3B-I and LC3B-II. LC3B-I is a truncated LC3B. In contrast, LC3B-II is a truncated and lipidated version of LC3B-I [28, 29]. Importantly, LC3B-II is centrally involved in the events of autophagosome membrane expansion and fusion.
as §2
(§7) A 25 µg equivalent quantity of each protein samples were resolved on a 10% and 15% SDS-PAGE gel accordingly and transferred onto a nitrocellulose membrane. Immunoblotting was performed using anti-protein antibodies against glyceraldehyde 3-phosphate dehydrogenase (GAPDH) (1:5000), LC3B (1:1500), Beclin-1 (1:1500), Caspase-3 (1:1500), and Caspase-9 (1:1500). Blots were developed with Clarity Max Western ECL blotting substrates. Protein bands were quantitated densitometrically using ImageJ software (ImageJ15.0b, Wayen Rasband, NIH, Bethesda, Maryland, USA), expressed relative to GAPDH, and normalized to the vehicle control cells. Statistical calculations and bar graphs were done using GraphPad Prism software (Version 6.01), and three individual experimental data sets were used for the calculation. Data are presented as means ± SD and compared by the Holm–Sidak multiple t-tests method. P-values pf less than 0.05 were considered significant.

H9c2 cells [3] = assay: MTT-based cell proliferation assay under normoxia, H9c2; design: species or system rat; settings: H9c2, 10 µM peptide, 48 h, triplicates
Source text: as §5, §2, §6

SH-SY5Y cells [4] = assay: Hypoxia-reoxygenation injury, MTT assay, SH-SY5Y; assay type: cell-based, human; settings: 1 µM peptide, 24 h hypoxia then 24 h normoxia, triplicates
Method: as §1, §2, §3, §4

Candida albicans = settings: concentrations up to 100 µM; cited from earlier work
Escherichia coli = settings: concentrations up to 100 µM; cited from earlier work
caspase-3 = assay: Western blot of caspase-3 in SH-SY5Y cells; assay type: cell-based, human; settings: triplicates
Method: In contrast, the β-gB1-treated cells increased the expression of the LC3B-II isoform by 2.8-fold. […] In addition, the β-gB1-treated cells increased the BECN1 expression by 1.5-fold (Figure 2A,B).
as §2
as §7, with “P-values pf less than 0.05 were considered significant.” left out

H9c2 cells [5] = assay: LDH release cytotoxicity assay, H9c2; assay type: cell-based, rat; settings: H9c2, 10 µM peptide, 48 h, 37 °C; LDH kit, 450 nm; triplicates
Source text: as §5, §2
An LDH release assay was performed using the CytoSelect™ LDH cytotoxicity assay kit (CBA-241, Cell Biolabs, Inc., San Diego, CA, USA). In brief, cells were cultured in DMEM with or without 10 µM of β-gB1 and S-alkylated β-gB1 (β-gB1Alk) for 48 h at 37 °C and 5% CO2. PBS was used for the vehicle control experiment. The culture medium was transferred and mixed with the LDH assay reagent in a ratio of 9:1. The reaction mixture was incubated at 37 °C for 2 h, and colorimetric quantification was performed using a 450 nm wavelength. The assay was performed in experimental triplicates, and statistical calculations and bar graphs were done using GraphPad Prism software (Version 6.01). […]

Candida tropicalis = settings: concentrations up to 100 µM; cited from earlier work

For CC[C@H](C)[C@@H]1NC(=O)[C@@H]2CSSC[C@H](NC(=O)CNC(=O)[C@@H](NC(=O)[C@H](CCC(=O)O)NC(=O)[C@@H](N)Cc3ccc(O)cc3)[C@@H](C)O)C(=O)N[C@@H](CCCCN)C(=O)N[C@@H](CCCNC(=N)N)C(=O)N[C@H]3CSSC[C@@H](C(=O)O)NC(=O)[C@H](CSSC[C@H](NC3=O)C(=O)N[C@@H](Cc3ccc(O)cc3)C(=O)N[C@@H](CC(C)C)C(=O)N[C@@H](CC(=O)O)C(=O)N[C@@H](CCC(=O)O)C(=O)N[C@@H](Cc3ccc(O)cc3)C(=O)NCC(=O)N2)NC(=O)[C@H](CCCNC(=N)N)NC1=O [β-gB1] (HELM PEPTIDE1{Y.E.T.G.C.K.R.C.C.Y.L.D.E.Y.G.C.I.R.C.C}$PEPTIDE1,PEPTIDE1,5:R3-16:R3|PEPTIDE1,PEPTIDE1,8:R3-20:R3|PEPTIDE1,PEPTIDE1,9:R3-19:R3$$$V2.0; N-terminus and C-terminus assumed), which “Increase of cell survivability under hypoxia-reoxygenation” value (H9c2 cells [1]) is on record?
Its value is 24%.

And the “Cell viability (growth or death) under normoxia” value (SH-SY5Y cells [2])?
Its value is “No change in cell viability; also recorded: no significant effect on the growth or death”.

What about the “Increase of BECN1 expression vs control” value (Beclin-1 (BECN1)) of the same compound?
The value was 1.5 fold.

And the “Increase of LC3B-II/LC3B-I ratio compared to control” value (LC3B; western blot band intensity)?
Its value is “about 3 fold”.

And the “Increase of expression of LC3B-II isoform vs control” value (LC3B; western blot densitometry relative to GAPDH, normalized to vehicle control, mean)?
Its value is 2.8 fold.

And the “Expression of LC3B-I isoform vs control” value (LC3B; western blot densitometry relative to GAPDH, normalized to vehicle control)?
The value was “did not alter the expression”.

And the “Cell viability (growth or death) under normoxia” value (H9c2 cells [3])?
The value was “No change in cell viability; also recorded: no significant effect on the growth or death”.

What about the “Increase of cell survivability under hypoxia-reoxygenation” value (SH-SY5Y cells [4]) of the same compound?
Its value is 19%.

And the Antimicrobial effect (Candida albicans)?
Its Antimicrobial effect is “does not exhibit an antimicrobial effect”.

And the Antimicrobial effect (Escherichia coli)?
The Antimicrobial effect was “does not exhibit an antimicrobial effect”.

And the “Expression of caspase-3 in treated cells” value (caspase-3)?
The value was “remained unchanged”.

And the “Cytotoxicity / cell-membrane damage by LDH release” value (H9c2 cells [5])?
The value was “no significant cytotoxicity or cell-membrane damaging effects”.

What about the Antimicrobial effect (Candida tropicalis) of the same compound?
The Antimicrobial effect was “does not exhibit an antimicrobial effect”.
